Source: patent publication US10214511B2, “Quinazolines as potassium ion channel inhibitors” (Bristol-Myers Squibb Company, priority 2009, dated 2019)
Where two headings read alike, the source gives them in different places.

Legend:
Kv 1.5 = Kv 1.5 (Homo sapiens (Human), UniProt P22460); test: Kv1.5 (IKur) inhibition assay; format: cell-based
Description: Assays to determine the degree of activity of a compound as an IKur inhibitor are well known in the art and are described in references such as J. Gen. Physiol., 101(4):513-543 (April 1993), and Br. J. Pharmacol., 115(2):267-274 (May 1995).
Assays to determine the degree of activity of a compound as an inhibitor of other members of the Kv1 subfamily are also well known in the art. For example, inhibition of Kv1.1, Kv1.2 and Kv1.3 can be measured using procedures described by Grissmer, S. et al., Mol. Pharmacol., 45(6):1227-1234 (June 1994); inhibition of Kv1.4 can be measured using procedures described by Petersen, K. R. et al., Pflugers Arch., 437(3):381-392 (February 1999); inhibition of Kv1.6 can be measured using procedures described by Bowlby, M. R. et al., J. Neurophysiol. 73(6):2221-2229 (June 1995); and inhibition of Kv1.7 can be measured using procedures described by Kalman, K. et al., J. Biol. Chem., 273(10):5851-5857 (Mar. 6, 1998).
Compounds of the present invention were tested in one of the assays described immediately above and the results shown in Table 2 below were obtained.

CK2A2 = CK2A2 (Homo sapiens (Human), UniProt P19784); test: Caliper Kinase Assay; format: biochemical; settings: ATP at Km, peptide 1.5 uM; read-out: LLE_CK2A2 (IC50)
JAK3 = JAK3 (Homo sapiens (Human), UniProt P52333); test: Caliper Kinase Assay; format: biochemical; settings: ATP at Km, peptide 1.5 uM; read-out: LLE_JAK3 (IC50)
TPL2 = TPL2 (Homo sapiens (Human), UniProt P41279); test: Caliper Kinase Assay; format: biochemical; settings: ATP at Km, peptide 1.5 uM; read-out: LLE_TPL2 CAL (IC50)
Sequence of TPL2 (P41279 whole entry, species assumed): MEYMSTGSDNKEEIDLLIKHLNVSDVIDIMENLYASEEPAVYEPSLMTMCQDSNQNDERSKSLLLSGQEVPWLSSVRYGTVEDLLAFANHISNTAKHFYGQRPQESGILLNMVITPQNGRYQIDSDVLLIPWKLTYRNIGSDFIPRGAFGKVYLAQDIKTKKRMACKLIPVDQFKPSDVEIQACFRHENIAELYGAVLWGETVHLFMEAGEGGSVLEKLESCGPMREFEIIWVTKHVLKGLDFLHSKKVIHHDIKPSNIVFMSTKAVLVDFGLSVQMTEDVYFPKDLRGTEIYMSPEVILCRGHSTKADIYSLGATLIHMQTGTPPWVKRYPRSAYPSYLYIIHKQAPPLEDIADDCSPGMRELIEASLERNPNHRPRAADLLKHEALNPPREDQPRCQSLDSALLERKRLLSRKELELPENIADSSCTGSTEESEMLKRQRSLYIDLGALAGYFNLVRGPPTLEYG
Description: (§1) In addition, compounds of the present invention, such as particular compounds disclosed in the preceding examples, were evaluated for their effectiveness as inhibitors of kinase receptor activity.
(§2) The analyses were performed in U-bottom 384-well plates. The final assay volume was 30 μl prepared from 15 μl additions of enzyme and substrates (fluoresceinated peptide and ATP) and test compounds in assay buffer (20 mM HEPES pH 7.4, 10 mM MgCl2, 0.015% Brij35 and 4 mM DTT). The reaction was initiated by the combination of purified protein kinase with substrates and test compounds. The reaction was incubated at room temperature for 60 min. and terminated by adding 30 μl of 35 mM EDTA to each sample. The reaction mixture was analyzed on the Caliper LABCHIP® 3000 (Caliper, Hopkinton, Mass.) by electrophoretic separation of the fluorescent substrate and phosphorylated product. Inhibition data were calculated by comparison to no enzyme control reactions for 100% inhibition and vehicle-only reactions for 0% inhibition. The ATP was used at a final concentration equivalent to the Km and the peptide substrate concentration was 1.5 μM. […] Compounds were dissolved at 10 mM in dimethylsulfoxide (DMSO) and evaluated at eleven concentrations. IC50 values were derived by non-linear regression analysis.

GSK3B = GSK3B (Homo sapiens (Human), UniProt P49841); test: Caliper Kinase Assay; format: biochemical; settings: ATP at Km, peptide 1.5 uM; read-out: LLE GSK3B (IC50)
Description: as §1, §2

IRAK-4 = IRAK-4 (Homo sapiens (Human), UniProt Q9NWZ3); test: Caliper Kinase Assay; format: biochemical; settings: ATP at Km, peptide 1.5 uM; read-out: LLE IRAK-4 (IC50)
Description: as §1, §2

BTK = BTK (Homo sapiens (Human), UniProt Q06187); test: Caliper Kinase Assay; format: biochemical; settings: ATP at Km, peptide 1.5 uM; read-out: LLE_BTK (IC50)
ABL1 = ABL1 (Homo sapiens (Human), UniProt P00519); test: Caliper Kinase Assay; format: biochemical; settings: read-out: LLE_ABL1 (% INH, 50 uM)
Description: (§3) IC50 values were derived by non-linear regression analysis.

Flt3 = Flt3 (Homo sapiens (Human), UniProt P36888); test: Caliper Kinase Assay; format: biochemical; settings: ATP at Km, peptide 1.5 uM; read-out: LLE Flt3 (IC50)
Sequence of Flt3 (P36888 27-993, species assumed): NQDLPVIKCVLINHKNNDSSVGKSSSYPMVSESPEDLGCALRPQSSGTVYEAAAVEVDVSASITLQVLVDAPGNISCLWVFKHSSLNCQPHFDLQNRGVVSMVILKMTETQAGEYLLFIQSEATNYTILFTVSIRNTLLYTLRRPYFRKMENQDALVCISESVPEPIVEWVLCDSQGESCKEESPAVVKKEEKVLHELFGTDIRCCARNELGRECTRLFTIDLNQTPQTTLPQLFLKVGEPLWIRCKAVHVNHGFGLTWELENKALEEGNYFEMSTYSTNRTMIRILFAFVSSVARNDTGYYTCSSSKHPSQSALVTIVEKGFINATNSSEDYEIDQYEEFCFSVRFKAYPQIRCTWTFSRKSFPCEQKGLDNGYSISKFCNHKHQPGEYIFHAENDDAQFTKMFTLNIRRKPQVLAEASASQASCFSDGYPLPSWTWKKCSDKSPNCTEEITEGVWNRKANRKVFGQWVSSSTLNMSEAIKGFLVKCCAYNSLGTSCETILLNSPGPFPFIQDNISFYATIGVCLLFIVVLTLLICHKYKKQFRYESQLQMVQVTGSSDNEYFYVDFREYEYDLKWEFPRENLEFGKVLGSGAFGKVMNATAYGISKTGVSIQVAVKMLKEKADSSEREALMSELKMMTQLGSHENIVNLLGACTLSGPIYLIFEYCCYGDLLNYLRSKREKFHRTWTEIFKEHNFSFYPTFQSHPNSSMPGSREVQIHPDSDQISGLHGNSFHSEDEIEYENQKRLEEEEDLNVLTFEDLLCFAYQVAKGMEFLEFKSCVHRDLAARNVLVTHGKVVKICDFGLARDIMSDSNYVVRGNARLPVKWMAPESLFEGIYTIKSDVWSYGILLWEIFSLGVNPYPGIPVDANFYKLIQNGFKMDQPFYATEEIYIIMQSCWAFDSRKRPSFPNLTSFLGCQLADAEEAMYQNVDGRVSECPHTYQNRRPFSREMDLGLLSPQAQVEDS
Description: as §3

IGF1R = IGF1R (Homo sapiens (Human), UniProt P08069); test: Caliper Kinase Assay; format: biochemical; settings: ATP at Km, peptide 1.5 uM
Sequence of IGF1R (P08069 31-1367, species assumed): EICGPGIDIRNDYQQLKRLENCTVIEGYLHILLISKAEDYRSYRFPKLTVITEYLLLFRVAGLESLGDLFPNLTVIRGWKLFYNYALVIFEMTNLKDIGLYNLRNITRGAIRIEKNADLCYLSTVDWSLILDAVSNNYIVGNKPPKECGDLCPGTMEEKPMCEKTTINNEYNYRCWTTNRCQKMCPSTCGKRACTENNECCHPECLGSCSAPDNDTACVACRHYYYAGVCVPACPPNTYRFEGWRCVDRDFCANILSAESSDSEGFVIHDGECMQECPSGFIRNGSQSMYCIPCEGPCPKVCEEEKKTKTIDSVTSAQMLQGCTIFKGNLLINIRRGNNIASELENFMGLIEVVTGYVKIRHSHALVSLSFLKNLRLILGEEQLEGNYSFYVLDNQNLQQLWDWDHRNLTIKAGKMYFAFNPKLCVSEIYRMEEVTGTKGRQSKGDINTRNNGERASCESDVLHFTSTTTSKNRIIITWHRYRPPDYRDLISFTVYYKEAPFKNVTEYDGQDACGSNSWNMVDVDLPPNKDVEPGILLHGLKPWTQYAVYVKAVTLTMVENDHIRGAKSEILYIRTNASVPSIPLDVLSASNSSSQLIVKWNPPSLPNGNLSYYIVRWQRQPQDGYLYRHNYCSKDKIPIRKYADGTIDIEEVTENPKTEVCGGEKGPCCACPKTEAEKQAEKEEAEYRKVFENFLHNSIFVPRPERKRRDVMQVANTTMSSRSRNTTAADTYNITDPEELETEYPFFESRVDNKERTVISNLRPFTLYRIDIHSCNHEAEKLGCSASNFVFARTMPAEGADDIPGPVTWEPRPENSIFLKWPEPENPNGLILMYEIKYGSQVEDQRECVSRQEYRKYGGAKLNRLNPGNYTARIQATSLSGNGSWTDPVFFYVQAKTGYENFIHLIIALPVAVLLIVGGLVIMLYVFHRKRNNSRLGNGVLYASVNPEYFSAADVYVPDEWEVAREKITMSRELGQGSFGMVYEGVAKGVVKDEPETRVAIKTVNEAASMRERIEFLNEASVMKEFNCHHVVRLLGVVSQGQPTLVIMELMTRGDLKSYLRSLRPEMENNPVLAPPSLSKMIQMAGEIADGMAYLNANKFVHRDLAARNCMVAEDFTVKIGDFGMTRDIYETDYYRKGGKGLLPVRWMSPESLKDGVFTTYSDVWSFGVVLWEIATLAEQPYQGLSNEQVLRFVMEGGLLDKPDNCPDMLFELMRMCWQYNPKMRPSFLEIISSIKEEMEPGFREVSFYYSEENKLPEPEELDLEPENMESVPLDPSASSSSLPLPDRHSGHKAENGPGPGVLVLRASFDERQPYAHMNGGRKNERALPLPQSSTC
Description: as §3

PIM1 = PIM1 (Homo sapiens (Human), UniProt P11309); test: Caliper Kinase Assay; format: biochemical; settings: ATP at Km, peptide 1.5 uM
Sequence of PIM1 (P11309 whole entry, species assumed): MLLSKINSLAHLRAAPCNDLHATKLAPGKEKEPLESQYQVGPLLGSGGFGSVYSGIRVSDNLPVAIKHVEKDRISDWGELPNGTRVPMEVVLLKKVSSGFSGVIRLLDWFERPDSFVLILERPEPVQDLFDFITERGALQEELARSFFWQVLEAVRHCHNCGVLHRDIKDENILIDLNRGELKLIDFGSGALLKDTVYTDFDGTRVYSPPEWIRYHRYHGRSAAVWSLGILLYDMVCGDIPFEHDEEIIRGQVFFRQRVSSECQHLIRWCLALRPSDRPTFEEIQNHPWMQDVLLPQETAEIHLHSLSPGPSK
Description: as §3

JAK2 = JAK2 (Homo sapiens (Human), UniProt O60674); test: Caliper Kinase Assay; format: biochemical; settings: ATP at Km, peptide 1.5 uM; read-out: LLE_JAK2 (IC50)
Sequence of JAK2 (O60674 whole entry, species assumed): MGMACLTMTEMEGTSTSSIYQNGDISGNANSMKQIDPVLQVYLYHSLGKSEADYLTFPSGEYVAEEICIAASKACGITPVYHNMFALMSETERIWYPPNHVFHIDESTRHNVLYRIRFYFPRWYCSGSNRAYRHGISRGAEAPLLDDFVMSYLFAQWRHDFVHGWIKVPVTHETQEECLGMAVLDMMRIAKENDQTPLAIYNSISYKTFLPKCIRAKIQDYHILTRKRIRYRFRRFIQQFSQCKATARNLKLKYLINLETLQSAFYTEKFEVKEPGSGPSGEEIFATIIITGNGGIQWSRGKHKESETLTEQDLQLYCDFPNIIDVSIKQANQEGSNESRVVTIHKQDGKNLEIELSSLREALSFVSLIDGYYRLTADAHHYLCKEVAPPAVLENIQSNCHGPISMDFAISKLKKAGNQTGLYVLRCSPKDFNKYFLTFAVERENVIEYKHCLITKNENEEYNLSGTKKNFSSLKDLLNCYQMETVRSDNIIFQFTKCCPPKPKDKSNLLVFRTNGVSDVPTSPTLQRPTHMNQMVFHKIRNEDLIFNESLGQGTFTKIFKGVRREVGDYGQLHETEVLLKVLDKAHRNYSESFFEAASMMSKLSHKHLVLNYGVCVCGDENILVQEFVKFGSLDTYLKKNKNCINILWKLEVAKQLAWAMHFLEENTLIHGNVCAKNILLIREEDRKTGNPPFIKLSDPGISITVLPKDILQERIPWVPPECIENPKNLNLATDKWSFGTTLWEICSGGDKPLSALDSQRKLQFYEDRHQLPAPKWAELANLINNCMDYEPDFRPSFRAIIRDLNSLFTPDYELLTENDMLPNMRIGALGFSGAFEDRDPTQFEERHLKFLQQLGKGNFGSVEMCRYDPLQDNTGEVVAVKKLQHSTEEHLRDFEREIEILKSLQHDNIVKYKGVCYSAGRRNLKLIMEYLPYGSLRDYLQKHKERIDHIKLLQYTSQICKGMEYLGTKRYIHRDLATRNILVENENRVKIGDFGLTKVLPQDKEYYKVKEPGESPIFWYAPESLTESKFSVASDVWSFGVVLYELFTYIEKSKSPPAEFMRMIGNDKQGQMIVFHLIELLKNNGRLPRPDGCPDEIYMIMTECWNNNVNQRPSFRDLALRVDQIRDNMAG
Description: as §3

[1] = Brain penetration across species; format: in vivo
TAK1 = TAK1 (Homo sapiens (Human), UniProt O43318); test: Caliper Kinase Assay; format: biochemical; settings: ATP at Km, peptide 1.5 uM; read-out: LLE_TAK1 (IC50)
Description: as §3

Sequence of Kv 1.5 (P22460 whole entry): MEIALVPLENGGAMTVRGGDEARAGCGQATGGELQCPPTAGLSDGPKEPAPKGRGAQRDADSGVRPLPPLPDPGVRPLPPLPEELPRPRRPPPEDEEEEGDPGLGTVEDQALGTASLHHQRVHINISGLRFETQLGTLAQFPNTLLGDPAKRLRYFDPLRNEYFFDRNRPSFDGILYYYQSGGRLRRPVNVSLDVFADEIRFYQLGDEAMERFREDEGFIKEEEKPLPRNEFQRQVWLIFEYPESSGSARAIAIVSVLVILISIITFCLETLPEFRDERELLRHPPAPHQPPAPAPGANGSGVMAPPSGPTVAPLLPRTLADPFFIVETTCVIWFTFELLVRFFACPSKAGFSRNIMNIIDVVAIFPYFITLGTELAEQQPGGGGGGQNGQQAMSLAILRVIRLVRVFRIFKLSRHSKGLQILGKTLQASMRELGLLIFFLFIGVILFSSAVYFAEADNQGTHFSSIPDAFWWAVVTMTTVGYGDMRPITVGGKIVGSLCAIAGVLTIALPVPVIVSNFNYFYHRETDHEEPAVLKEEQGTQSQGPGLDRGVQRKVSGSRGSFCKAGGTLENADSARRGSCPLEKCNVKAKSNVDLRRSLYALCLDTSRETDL

Row | SMILES | inhibition at 0.3 µM (Kv 1.5) [%] | also measured
1 | FC(F)(F)c1ccccc1CNc1nc(Cl)nc2cccc(-c3ccccc3)c12 [Example 137] | 55.6 | 
2 | Clc1nc(NCc2ccccn2)c2c(-c3ccccc3)cccc2n1 [Example 19] |  | IC50 (CK2A2): 25.5 µM; IC50 (JAK3): 23.8 µM; IC50 (TPL2): 11.9 µM; IC50 (GSK3B): 5.15 µM; IC50 (IRAK-4): 18.7 µM; IC50 (BTK): 19.2 µM; inhibition at 50 µM (ABL1): 32.4%; IC50 (Flt3): 10.1 µM; IC50 (IGF1R; first section of Table 4, read-out: LLE IGF1R (IC50)): 17.6 µM; IC50 (IGF1R; second section of Table 4, read-out: LLE_IGF1R (IC50)): 17.6 µM; IC50 (PIM1; first section of Table 4, read-out: LLE PIM1 (IC50)): 33.8 µM; IC50 (PIM1; third section of Table 4, read-out: LLE_PIM1 (IC50)): 33.8 µM; IC50 (JAK2): 17.8 µM
3 | c1ccc(CNc2nc(-c3cncnc3)nc3cccc(-c4cccc(N5CCOCC5)c4)c23)nc1 [Example 107] | 50.3 | 
4 | NS(=O)(=O)c1cncc(-c2nc(NCc3ccccn3)c3c(-c4ccccc4)cccc3n2)c1 [Example 7, 5-(5-Phenyl-4-(pyridin-2-ylmethylamino)quinazolin-2-yl)pyridine-3-sulfonamide] | 95.7 | brain penetration [1]: surprisingly low degree of brain penetration across species; IC50 (JAK2): ≥ 50 µM
5 | COc1ccc(-c2nc(NCc3ccccn3)c3c(-c4ccccc4)cccc3n2)cn1 [Example 105] | 98.7 | 
6 | c1ccc(-c2cccc3nc(-c4ccncc4)nc(NCc4ccccn4)c23)cc1 [Example 31] | 98.2 | 
7 | c1ccc(-c2nc(NCc3ccccn3)c3c(-c4ccccc4)cccc3n2)cc1 [Example 50] | 96.1 | 
8 | Nc1ccc(-c2nc(NCc3ccccn3)c3c(-c4ccccc4)cccc3n2)cn1 [Example 32] | 53.1 | 
9 | COc1cncc(-c2nc(NCc3ccccn3)c3c(-c4ccccc4)cccc3n2)c1 [Example 29] | 65.3 | 
10 | CC(Nc1nc(Cl)nc2cccc(-c3ccccc3)c12)c1ccccc1 (stereo not drawn) [Example 130] | 96.2 | 
11 | Fc1ccc(CNc2nc(-c3cncnc3)nc3cccc(-c4ccccc4)c23)nc1 [Example 111] | 61.5 | 
12 | c1ccc(CNc2nc(-c3cncnc3)nc3cccc(-c4ccccc4)c23)cc1 [Example 40] | 59.8 | 
13 | Fc1ccc(CNc2nc(Cl)nc3cccc(-c4ccccc4)c23)nc1 [Example 110] | 51.8 | 
14 | c1ccc(-c2cccc3nc(-c4ccc5cc[nH]c5c4)nc(NCc4ccccn4)c23)cc1 [Example 46] | 98.7 | 
15 | Cc1nc(NCc2ccccn2)c2c(-c3ccccc3)cccc2n1 [Example 22] | 60.4 | 
16 | Clc1nc(Nc2nccs2)c2c(-c3ccccc3)cccc2n1 [Example 38] | 61.3 | 
17 | FC(F)(F)c1ccc(-c2cccc3nc(Cl)nc(NCc4ccccn4)c23)cc1 [Example 97] | 98.7 | 
18 | COc1cccc(CNc2nc(Cl)nc3cccc(-c4ccccc4)c23)c1 [Example 134] | 98.4 | 
19 | c1ccc(-c2cccc3nc(-c4cncnc4)nc(NCc4ccccn4)c23)cc1 [Example 1, 5-Phenyl-N-(pyridin-2-ylmethyl)-2-(pyrimidin-5-yl)quinazolin-4-amine] |  | IC50 (JAK2): 23.9 µM; IC50 (TAK1): ≥ 50 µM
20 | Clc1nc(NCc2ccccc2)c2c(-c3ccccc3)cccc2n1 [Example 42] | 96.4 | 
21 | CN(C)c1ccc(-c2cccc3nc(Cl)nc(NCc4ccccn4)c23)cc1 [Example 108] | 98.1 | 
